# Tests used:
# [1] = tested on: Trypanosoma brucei brucei; assay: Anti-parasitic activity against Trypanosoma brucei brucei AnTat1.1E; type: functional, organism-based
# [2] = Selectivity index, ratio of IC50 for HEK293T cells to IC50 for Trypanosoma brucei brucei AnTat1.1E; type: toxicity; details: human
# [3] = tested on: Trypanosoma brucei rhodesiense; assay: Anti-parasitic activity against Trypanosoma brucei rhodesiense STIB 851; type: functional, organism-based
# [4] = Selectivity index, ratio of IC50 for HEK293T cells to IC50 for Trypanosoma brucei rhodesiense STIB 851; type: toxicity; details: human
# [5] = tested on: Trypanosoma brucei gambiense; assay: Anti-parasitic activity against Trypanosoma brucei gambiense MBA; type: functional, organism-based
# [6] = Selectivity index, ratio of IC50 for HEK293T cells to IC50 for Trypanosoma brucei gambiense MBA; type: toxicity; details: human
# Trypanosoma cruzi [7] = assay: Anti-parasitic activity against trypomastigote stage of Trypanosoma cruzi Y infected in monkey LLC-MK2 cells after 24 hrs; type: functional, organism-based; details: LLC-MK2, 24 h
# [8] = Selectivity index, ratio of cytotoxic activity for monkey LLC-MK2 cells to IC50 for trypomastigote stage of Trypanosoma cruzi Y; type: toxicity
# Trypanosoma brucei [9] = assay: Anti-parasitic activity against wild type Trypanosoma brucei; type: functional, organism-based
# [10] = Selectivity index, ratio of IC50 for human SK-N-SH cells to IC50 for wild type Trypanosoma brucei; type: toxicity; details: read-out: Ratio IC50
# Trypanosoma brucei [11] = assay: Anti-parasitic activity against type 1 nitroreductase over-expressing Trypanosoma brucei; type: functional, organism-based
# [12] = Selectivity index, ratio of IC50 for human THP1 cells to IC50 for Trypanosoma brucei overexpressing the type 1 nitroreductase; type: toxicity; details: read-out: Ratio IC50
# Leishmania amazonensis [13] = assay: Anti-parasitic activity against promastigote stage of Leishmania amazonensis WHOM/00 LTB 0016 after 96 hrs; type: functional, organism-based; details: WHOM/00 LTB 0016, 96 h
# [14] = Selectivity index, ratio of CC50 for mouse macrophages to IC50 for promastigote stage of Leishmania amazonensis WHOM/00 LTB 0016; type: toxicity; details: read-out: Ratio CC50/IC50
# Leishmania amazonensis [15] = assay: Anti-parasitic activity against amastigote stage of Leishmania amazonensis WHOM/00 LTB 0016 infected in mouse macrophages after 24 hrs; type: functional, organism-based; details: WHOM/00 LTB 0016, 24 h
# [16] = Selectivity index, ratio of CC50 for mouse macrophages to IC50 for amastigote stage of Leishmania amazonensis WHOM/00 LTB 0016; type: toxicity; details: read-out: Ratio CC50/IC50
# Leishmania panamensis = assay: Anti-parasitic activity against amastigote stage of EGFP-fused Leishmania panamensis MHOM/CO/87/UA140 infected in human U-937 cells after 72 hrs by flow cytometric analysis; type: functional, organism-based; details: MHOM/CO/87/UA140, U-937, 72 h
# [17] = Selectivity index, ratio of EC50 for human U-937 cells to IC50 for amastigote stage of EGFP-fused Leishmania panamensis MHOM/CO/87/UA140; type: toxicity; details: read-out: Selectivity Index
# Leishmania infantum [18] = assay: Anti-parasitic activity against promastigote stage of Leishmania infantum MHOM/BR/BH 46 after 72 hrs by Neubauer chamber method; type: functional, organism-based; details: MHOM/BR/BH 46, 72 h
# Leishmania infantum [19] = assay: Anti-parasitic activity against amastigote stage of Leishmania infantum MHOM/BR/BH 46 infected in macrophages after 24 hrs by Giemsa staining based method; type: functional, organism-based; details: MHOM/BR/BH 46, 24 h
# [20] = Selectivity index, ratio of CC50 for mouse J774 cells to IC50 for promastigote stage of Leishmania infantum MHOM/BR/BH 46; type: toxicity; details: read-out: Ratio CC50/IC50
# [21] = Selectivity index, ratio of cytotoxic activity for macrophages (unknown origin) to IC50 for amastigote stage of Leishmania infantum MHOM/BR/BH 46; type: toxicity; details: read-out: Ratio CC50/IC50
# [22] = tested on: Trypanosoma brucei brucei; assay: Anti-parasitic activity against Trypanosoma brucei brucei 427 after 72 hrs by Alamar Blue assay; type: functional, organism-based; details: Trypanosoma brucei, 427, 72 h
# [23] = Selectivity index, ratio of LC50 for salina eggs to IC50 for Trypanosoma brucei brucei 427; type: toxicity; details: Artemia salina (brine shrimp), read-out: Ratio IC50
# [24] = tested on: Trypanosoma brucei brucei; assay: Anti-parasitic activity against trypomastigote stage of Trypanosoma brucei brucei; type: functional, organism-based
# [25] = Selectivity index, ratio of IC50 for human WI38 cells to IC50 for trypomastigote stage of Trypanosoma brucei brucei; type: toxicity; details: read-out: Ratio IC50
# A549 [26] = assay: Cytotoxicity against human A549 cells assessed as reduction in cell viability after 24 hrs by MTT assay; type: functional, cell-based; details: A549, 24 h
# C6 = assay: Cytotoxicity against rat C6 cells assessed as reduction in cell viability after 24 hrs by MTT assay; type: functional, cell-based; details: C6, 24 h
# Trypanosoma cruzi [27] = assay: Anti-parasitic activity against amastigote stage of Trypanosoma cruzi Y infected in monkey LLC-MK2 cells after 96 hrs; type: functional, organism-based; details: LLC-MK2, 96 h
# Trypanosoma cruzi [28] = assay: Anti-parasitic activity against epimastigote stage of Trypanosoma cruzi Tulahuen 2 measured at day 5; type: functional, organism-based; details: Tulahuen 2, 120 h
# Trypanosoma cruzi [29] = assay: Anti-parasitic activity against amastigote stage of Trypanosoma cruzi Sylvio X-10 infected in African green monkey Vero cells after 72 hrs by Giemsa-staining based assay; type: functional, organism-based; details: Sylvio X-10, Vero
# Trypanosoma cruzi [30] = assay: Anti-parasitic activity against amastigote stage of Trypanosoma cruzi Tulahuen CL2 infected in human MRC5 cells after 7 days by […] reporter gene assay; type: functional, organism-based; details: Tulahuen CL2, MRC5, 168 h
# [31] = Selectivity index, ratio of cytotoxic activity for African green monkey Vero cells to IC50 for amastigote stage of Trypanosoma cruzi Tulahuen CL2; type: toxicity
# [32] = biological target: Cruzipain (Trypanosoma cruzi) (UniProt P25779); assay: Inhibition of recombinant Trypanosoma cruzi CL epimastigotes form cruzain at 100 uM using Z-FR-AMC as substrate preincubated for 10 mins followed by substrate addition measured after 5 mins by fluorimetric analysis relative to control
# MKN-45 = assay: Cytotoxicity against human MKN45 cells assessed as reduction in cell viability after 72 hrs by MTT assay; type: functional, cell-based; details: MKN-45, 72 h
# HT-29 = assay: Cytotoxicity against human HT-29 cells assessed as reduction in cell viability after 72 hrs by MTT assay; type: functional, cell-based; details: HT-29, 72 h
# NCI-H460 = assay: Cytotoxicity against human H460 cells assessed as reduction in cell viability after 72 hrs by MTT assay; type: functional, cell-based; details: NCI-H460, 72 h
# WI-38 = assay: Cytotoxicity against human WI38 cells assessed as reduction in cell viability after 72 hrs by MTT assay; type: cell-based; details: WI-38, 72 h
# [33] = biological target: Hepatocyte growth factor receptor (Homo sapiens) (UniProt P08581); assay: Inhibition of recombinant N-terminal His6-tagged human c-MET (974 to end residues) expressed in baculovirus infected Sf21 cells at 10 uM using peptide as substrate preincubated for 1 hr followed by substrate addition measured after 20 mins by HTRF assay relative to control
# [34] = biological target: Vascular endothelial growth factor receptor 2 (Homo sapiens) (UniProt P35968); assay: Inhibition of recombinant GST-tagged human KDR (789 to end residues) expressed in baculovirus infected Sf9 cells at 10 uM using peptide as substrate preincubated for 1 hr followed by substrate addition measured after 20 mins by HTRF assay relative to control
# [35] = biological target: Platelet-derived growth factor receptor alpha (Homo sapiens) (UniProt P16234); assay: Inhibition of recombinant GST-tagged human PDGFRalpha (550 to 1089 residues) cytoplasmic domain expressed in baculovirus expression system at 10 uM using peptide as substrate preincubated for 1 hr followed by substrate addition measured after 20 mins by HTRF assay relative to control
# [36] = biological target: RAF proto-oncogene serine/threonine-protein kinase (Homo sapiens) (UniProt P04049); assay: Inhibition of c-Raf (unknown origin) at 10 uM using peptide as substrate preincubated for 1 hr followed by substrate addition measured after 20 mins by HTRF assay relative to control
# Leishmania amazonensis [37] = assay: Anti-parasitic activity against promastigote stage of Leishmania amazonensis MHOM/BR/Josefa […] after 72 hrs by Neubauer chamber method; type: functional, organism-based
# [38] = Selectivity index, ratio of CC50 for mouse J774A1 cells to IC50 for promastigote stage of Leishmania amazonensis MHOM/BR/Josefa; type: toxicity; details: read-out: Ratio CC50/IC50
# Leishmania amazonensis [39] = assay: Anti-parasitic activity against axenic amastigote stage of Leishmania amazonensis MHOM/BR/Josefa […] after 72 hrs by Neubauer chamber method; type: functional, organism-based
# [40] = Selectivity index, ratio of CC50 for mouse J774A1 cells to IC50 for axenic amastigote stage of Leishmania amazonensis MHOM/BR/Josefa; type: toxicity; details: read-out: Ratio CC50/IC50
# Leishmania amazonensis [41] = assay: Anti-parasitic activity against amastigote stage of Leishmania amazonensis MHOM/BR/Josefa infected in BALB/c mouse Peritoneal macrophages after 48 hrs by Giemsa staining-based method; type: functional, organism-based
# [42] = Selectivity index, ratio of CC50 for mouse J774A1 cells to IC50 for amastigote stage of Leishmania amazonensis infected in BALB/c mouse Peritoneal macrophages; type: toxicity; details: read-out: Ratio CC50/IC50
# MDA-MB-231 = assay: Cytotoxicity against human MDA-MB-231 cells assessed as reduction in cell viability after 72 hrs by MTT assay; type: functional, cell-based; details: MDA-MB-231, 72 h
# A549 [43] = assay: Cytotoxicity against human A549 cells assessed as reduction in cell viability after 72 hrs by MTT assay; type: functional, cell-based; details: A549, 72 h
# Chain of Vascular endothelial growth factor receptor 2 (Homo sapiens) (P35968 whole entry, the tested form may be a part): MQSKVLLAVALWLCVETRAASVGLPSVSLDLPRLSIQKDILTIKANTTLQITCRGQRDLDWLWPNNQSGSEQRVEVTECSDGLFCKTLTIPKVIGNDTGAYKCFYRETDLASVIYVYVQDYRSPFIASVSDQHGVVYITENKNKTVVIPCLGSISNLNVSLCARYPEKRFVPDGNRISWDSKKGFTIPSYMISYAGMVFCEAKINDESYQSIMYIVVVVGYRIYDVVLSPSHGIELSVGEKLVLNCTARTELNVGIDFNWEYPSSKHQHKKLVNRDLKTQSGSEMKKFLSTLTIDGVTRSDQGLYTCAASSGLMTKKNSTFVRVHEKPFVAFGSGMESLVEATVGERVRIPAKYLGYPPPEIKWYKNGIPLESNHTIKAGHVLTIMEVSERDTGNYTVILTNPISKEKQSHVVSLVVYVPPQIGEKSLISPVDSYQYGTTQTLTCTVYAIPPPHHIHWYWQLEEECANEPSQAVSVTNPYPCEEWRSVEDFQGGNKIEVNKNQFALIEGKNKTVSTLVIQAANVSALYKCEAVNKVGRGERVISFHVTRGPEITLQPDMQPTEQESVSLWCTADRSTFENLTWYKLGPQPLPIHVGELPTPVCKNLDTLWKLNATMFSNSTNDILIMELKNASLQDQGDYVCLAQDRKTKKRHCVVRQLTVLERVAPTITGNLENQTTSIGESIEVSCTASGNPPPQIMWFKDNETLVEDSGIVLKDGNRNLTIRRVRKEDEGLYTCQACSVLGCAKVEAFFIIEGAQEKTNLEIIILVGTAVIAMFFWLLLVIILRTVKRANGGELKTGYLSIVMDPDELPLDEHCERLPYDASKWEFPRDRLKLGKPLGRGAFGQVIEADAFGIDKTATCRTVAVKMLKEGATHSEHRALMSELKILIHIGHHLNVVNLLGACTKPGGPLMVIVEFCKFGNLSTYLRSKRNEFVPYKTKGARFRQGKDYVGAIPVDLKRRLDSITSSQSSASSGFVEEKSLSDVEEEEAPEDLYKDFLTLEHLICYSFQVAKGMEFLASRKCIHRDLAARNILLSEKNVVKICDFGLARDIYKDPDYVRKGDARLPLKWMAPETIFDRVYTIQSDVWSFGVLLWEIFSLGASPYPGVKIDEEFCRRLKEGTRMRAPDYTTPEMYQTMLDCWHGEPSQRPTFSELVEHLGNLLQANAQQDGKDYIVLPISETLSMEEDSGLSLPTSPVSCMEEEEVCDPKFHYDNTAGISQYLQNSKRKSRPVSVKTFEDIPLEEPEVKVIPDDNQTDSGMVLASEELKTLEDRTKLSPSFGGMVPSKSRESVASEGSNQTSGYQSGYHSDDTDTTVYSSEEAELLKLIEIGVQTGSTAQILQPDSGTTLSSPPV
# Chain of Platelet-derived growth factor receptor alpha (Homo sapiens) (P16234 whole entry, the tested form may be a part): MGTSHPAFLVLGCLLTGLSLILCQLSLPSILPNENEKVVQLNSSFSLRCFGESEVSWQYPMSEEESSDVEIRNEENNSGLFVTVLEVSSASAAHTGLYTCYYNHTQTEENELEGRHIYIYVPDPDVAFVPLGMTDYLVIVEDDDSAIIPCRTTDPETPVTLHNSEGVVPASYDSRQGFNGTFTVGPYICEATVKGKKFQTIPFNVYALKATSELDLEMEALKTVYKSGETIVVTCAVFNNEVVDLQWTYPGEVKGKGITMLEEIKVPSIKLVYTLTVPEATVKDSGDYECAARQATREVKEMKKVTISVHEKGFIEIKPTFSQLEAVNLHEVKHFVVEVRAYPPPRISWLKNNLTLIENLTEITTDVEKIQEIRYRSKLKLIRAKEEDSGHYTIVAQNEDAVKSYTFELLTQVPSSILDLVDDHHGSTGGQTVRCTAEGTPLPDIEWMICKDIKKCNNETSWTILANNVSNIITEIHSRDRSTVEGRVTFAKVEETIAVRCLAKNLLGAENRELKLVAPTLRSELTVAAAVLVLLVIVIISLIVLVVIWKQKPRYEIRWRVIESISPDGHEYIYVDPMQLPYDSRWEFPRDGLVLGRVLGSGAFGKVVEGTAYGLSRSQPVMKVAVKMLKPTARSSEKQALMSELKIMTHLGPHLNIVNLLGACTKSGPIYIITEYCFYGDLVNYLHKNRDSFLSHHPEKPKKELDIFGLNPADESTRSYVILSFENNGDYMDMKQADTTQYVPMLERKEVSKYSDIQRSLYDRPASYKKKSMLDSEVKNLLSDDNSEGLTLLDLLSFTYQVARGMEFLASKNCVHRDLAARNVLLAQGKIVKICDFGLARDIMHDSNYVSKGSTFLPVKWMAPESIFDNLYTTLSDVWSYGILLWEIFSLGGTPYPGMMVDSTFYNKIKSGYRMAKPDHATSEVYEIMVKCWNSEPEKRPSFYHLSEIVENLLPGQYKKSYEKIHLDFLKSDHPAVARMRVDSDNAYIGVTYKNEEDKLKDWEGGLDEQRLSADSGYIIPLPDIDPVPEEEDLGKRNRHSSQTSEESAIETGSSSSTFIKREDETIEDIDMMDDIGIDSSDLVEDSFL
# Chain of Cruzipain (Trypanosoma cruzi) (P25779 123-467 limits assumed): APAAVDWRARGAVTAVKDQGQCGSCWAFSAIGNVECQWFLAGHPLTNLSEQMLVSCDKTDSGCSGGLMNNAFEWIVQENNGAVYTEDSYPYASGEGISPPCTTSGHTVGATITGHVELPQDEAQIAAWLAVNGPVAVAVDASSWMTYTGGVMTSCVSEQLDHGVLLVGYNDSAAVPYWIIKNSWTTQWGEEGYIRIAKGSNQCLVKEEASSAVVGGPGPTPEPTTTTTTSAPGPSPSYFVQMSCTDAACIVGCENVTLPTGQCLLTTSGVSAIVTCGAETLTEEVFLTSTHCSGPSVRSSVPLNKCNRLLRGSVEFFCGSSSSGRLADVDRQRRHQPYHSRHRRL
# Chain of RAF proto-oncogene serine/threonine-protein kinase (Homo sapiens) (P04049 whole entry): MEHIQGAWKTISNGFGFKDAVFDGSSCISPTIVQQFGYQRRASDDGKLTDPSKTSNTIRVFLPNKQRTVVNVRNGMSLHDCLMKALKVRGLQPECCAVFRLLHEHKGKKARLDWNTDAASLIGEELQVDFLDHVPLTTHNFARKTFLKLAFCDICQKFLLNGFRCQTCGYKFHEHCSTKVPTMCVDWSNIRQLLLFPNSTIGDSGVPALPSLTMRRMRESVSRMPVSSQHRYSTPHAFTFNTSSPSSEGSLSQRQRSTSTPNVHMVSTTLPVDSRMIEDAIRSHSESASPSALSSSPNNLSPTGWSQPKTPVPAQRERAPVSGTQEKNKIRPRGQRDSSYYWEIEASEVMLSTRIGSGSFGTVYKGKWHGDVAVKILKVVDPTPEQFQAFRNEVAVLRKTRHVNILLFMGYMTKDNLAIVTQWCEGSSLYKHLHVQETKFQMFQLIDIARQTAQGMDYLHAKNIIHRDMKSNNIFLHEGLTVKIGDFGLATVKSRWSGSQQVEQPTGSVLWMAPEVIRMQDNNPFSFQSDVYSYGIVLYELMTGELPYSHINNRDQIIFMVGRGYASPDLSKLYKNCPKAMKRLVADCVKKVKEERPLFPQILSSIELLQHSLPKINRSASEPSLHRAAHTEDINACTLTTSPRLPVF
# Chain of Hepatocyte growth factor receptor (Homo sapiens) (P08581 whole entry): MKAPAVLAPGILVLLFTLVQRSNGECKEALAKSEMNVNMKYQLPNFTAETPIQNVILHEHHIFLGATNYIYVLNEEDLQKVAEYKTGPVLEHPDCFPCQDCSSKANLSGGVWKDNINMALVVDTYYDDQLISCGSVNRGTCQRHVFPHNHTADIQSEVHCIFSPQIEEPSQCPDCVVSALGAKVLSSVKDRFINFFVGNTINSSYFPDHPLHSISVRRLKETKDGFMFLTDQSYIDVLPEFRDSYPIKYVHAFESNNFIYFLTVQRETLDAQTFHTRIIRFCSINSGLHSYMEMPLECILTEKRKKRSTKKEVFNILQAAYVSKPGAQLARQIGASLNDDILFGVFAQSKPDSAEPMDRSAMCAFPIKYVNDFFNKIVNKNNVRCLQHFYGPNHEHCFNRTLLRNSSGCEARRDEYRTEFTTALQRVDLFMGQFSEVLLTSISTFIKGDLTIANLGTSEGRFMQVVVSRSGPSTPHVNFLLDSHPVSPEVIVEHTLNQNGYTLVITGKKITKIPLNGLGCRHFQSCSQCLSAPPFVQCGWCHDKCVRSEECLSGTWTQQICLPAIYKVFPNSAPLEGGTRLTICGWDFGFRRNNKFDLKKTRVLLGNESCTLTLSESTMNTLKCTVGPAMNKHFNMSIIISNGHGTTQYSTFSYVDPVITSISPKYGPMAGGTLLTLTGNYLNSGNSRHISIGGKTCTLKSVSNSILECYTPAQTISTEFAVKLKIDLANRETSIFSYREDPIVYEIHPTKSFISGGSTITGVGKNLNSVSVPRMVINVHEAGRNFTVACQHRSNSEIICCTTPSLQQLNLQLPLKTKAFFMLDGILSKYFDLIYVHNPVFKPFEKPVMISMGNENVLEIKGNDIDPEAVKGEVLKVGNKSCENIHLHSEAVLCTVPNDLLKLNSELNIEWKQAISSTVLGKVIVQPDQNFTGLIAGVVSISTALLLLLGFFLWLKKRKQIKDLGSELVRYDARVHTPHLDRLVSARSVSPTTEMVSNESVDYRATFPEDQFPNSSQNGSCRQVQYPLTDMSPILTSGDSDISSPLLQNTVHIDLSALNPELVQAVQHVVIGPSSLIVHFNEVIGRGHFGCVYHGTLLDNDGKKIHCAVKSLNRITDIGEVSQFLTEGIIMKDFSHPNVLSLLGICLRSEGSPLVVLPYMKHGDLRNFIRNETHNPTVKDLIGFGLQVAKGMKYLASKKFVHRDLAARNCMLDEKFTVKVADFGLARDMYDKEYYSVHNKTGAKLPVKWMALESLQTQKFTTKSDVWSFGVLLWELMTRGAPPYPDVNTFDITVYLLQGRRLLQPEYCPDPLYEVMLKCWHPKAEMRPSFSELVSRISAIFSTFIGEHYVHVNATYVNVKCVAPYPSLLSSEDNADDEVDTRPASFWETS
structure (smiles),measurement,setting,value
O=c1c2ccccc2sn1-c1ccccc1,IC50,[1],0.092 µM
same,selectivity ratio,[2],174
same,IC50,[3],0.263 µM
same,selectivity ratio,[4],60.8
same,IC50,[5],0.061 µM
same,selectivity ratio,[6],262
CCC1S/C(=N/N=C(/COc2ccccc2)c2ccc(Br)cc2)NC1=O (stereo unspecified),IC50,Trypanosoma cruzi [7],4 µM
same,selectivity ratio,[8],> 57.9
CCCC(=O)Nc1ncc([N+](=O)[O-])s1,IC50,Trypanosoma brucei [9],6.47 µM
same,selectivity ratio,[10],> 15
same,IC50,Trypanosoma brucei [11],0.64 µM
same,selectivity ratio,[12],> 156
COc1ccc(/C(COc2ccccc2)=N\NC(N)=S)cc1,IC50,Leishmania amazonensis [13],3.5 µM
same,selectivity ratio,[14],44.4
same,IC50,Leishmania amazonensis [15],34.3 µM
same,selectivity ratio,[16],4.5
O=C(N/N=C1\CC(c2ccccc2)Sc2ccccc21)c1ccncc1 (stereo unspecified),EC50,Leishmania panamensis,16.4 µM
same,selectivity ratio,[17],33.9
O=C1c2ccccc2C(=O)N1Nc1nc(-c2ccc(Cl)cc2Cl)cs1,IC50,Leishmania infantum [18],13.9 µM
same,IC50,Leishmania infantum [19],22.3 µM
same,selectivity ratio,[20],12.7
same,selectivity ratio,[21],12
CCCCC(=O)Nc1ncc([N+](=O)[O-])s1,IC50,Trypanosoma brucei [9],4.32 µM
same,selectivity ratio,[10],> 23
same,IC50,Trypanosoma brucei [11],0.57 µM
same,selectivity ratio,[12],> 175
S=C(NN=C(c1ccccc1)c1ccccc1)Nc1ccccc1,IC50,[22],8.48 µM
same,selectivity ratio,[23],43.2
CC1=C/C(=N/NC(=S)Nc2ccccc2)C(C(C)C)CC1 (stereo unspecified),IC50,[24],10.9 µM
same,selectivity ratio,[25],12.3
Cc1c(CO)c(CO)c2n1[C@@H](c1ccccc1)SC2,IC50,A549 [26],12 µg/mL
same,IC50,C6,3.83 µg/mL
Nc1ccccc1/C(=N\NC(=S)Nc1ccccc1)c1ccccc1,IC50,[22],2.83 µM
same,selectivity ratio,[23],15
CC(=O)Nc1ncc([N+](=O)[O-])s1 [NITHIAMIDE],IC50,Trypanosoma brucei [9],4.67 µM
same,selectivity ratio,[10],> 21
same,IC50,Trypanosoma brucei [11],0.58 µM
same,selectivity ratio,[12],149
N/C(S)=N/N=C/c1ccc([N+](=O)[O-])cc1,EC50,Trypanosoma cruzi [7],1.43 µM
same,IC50,Trypanosoma cruzi [27],3.23 µM
C=CCn1c(C(=O)N2CCN(C/C=C/c3ccccc3)CC2)cs\c1=N/N=C/C=C/c1ccco1,IC50,Trypanosoma cruzi [28],3.1 µM
same,EC50,Trypanosoma cruzi [29],0.7 µM
CCOc1cccc2sc(N(Cc3cccnc3)C(=O)C3CCCCC3)nc12,IC50,Trypanosoma cruzi [30],0.16 µM
same,selectivity ratio,[31],> 200
CC(C)c1ccc(/C=N/NC(N)=S)cc1,inhibition,[32],70%
O=C(N/N=C/c1c(Cl)cccc1Cl)Nc1ccc(Oc2ccnc(-n3cnnn3)c2)c(F)c1,IC50,MKN-45,0.97 µM
same,IC50,HT-29,0.08 µM
same,IC50,NCI-H460,0.36 µM
same,IC50,WI-38,3.96 µM
same,inhibition,[33],14%
same,inhibition,[34],14%
same,inhibition,[35],14%
same,inhibition,[36],70.7%
NC(=S)N/N=C(/COc1ccccc1)c1ccc(Cl)cc1,IC50,Leishmania amazonensis [13],4.9 µM
same,selectivity ratio,[14],22.8
same,IC50,Leishmania amazonensis [15],40.3 µM
same,selectivity ratio,[16],2.77
CC1=CC[C@@H](C(C)(C)NC(=S)N/N=C/c2ccc([N+](=O)[O-])cc2)CC1,IC50,Leishmania amazonensis [37],3.8 µM
same,selectivity ratio,[38],23.4
same,IC50,Leishmania amazonensis [39],8 µM
same,selectivity ratio,[40],11.1
same,IC50,Leishmania amazonensis [41],7.7 µM
same,selectivity ratio,[42],11.5
CCC1S/C(=N/N=C(/COc2ccccc2)c2ccc(-c3ccccc3)cc2)NC1=O (stereo unspecified),IC50,Trypanosoma cruzi [7],10.8 µM
same,selectivity ratio,[8],> 21.6
NC(=O)N/N=C1\CC(c2ccccc2)Sc2ccccc21 (stereo unspecified),EC50,Leishmania panamensis,5.4 µM
same,selectivity ratio,[17],18.6
O=C1c2ccccc2C(=O)N1Nc1nc(-c2ccc3ccccc3c2)cs1,IC50,Leishmania infantum [18],9.8 µM
same,IC50,Leishmania infantum [19],5.2 µM
same,selectivity ratio,[20],17.7
same,selectivity ratio,[21],24
COc1cc2c(Oc3ccc(/C=N/NC(=O)Nc4ccccc4F)cc3F)ccnc2cc1OCCCN1CCCCC1,IC50,MKN-45,0.016 µM
same,IC50,HT-29,0.059 µM
same,IC50,MDA-MB-231,0.77 µM
same,IC50,A549 [43],0.009 µM
CCOC(=O)c1ccc(-n2sc3ccccc3c2=O)cc1,IC50,[1],0.937 µM
same,selectivity ratio,[2],> 267
NC(=S)N/N=C(/COc1ccccc1)c1ccccc1,IC50,Leishmania amazonensis [13],6 µM
same,selectivity ratio,[14],71.1
same,IC50,Leishmania amazonensis [15],33 µM
same,selectivity ratio,[16],4.94
